We go through seven molecules from patent US6503881B2 (priority 1996, dated 2003).

Experiment [1] relates to microorganisms with acquired resistance.
Setting [2] is: S. haemolyticus SH8463, pair Erythromycin / MBI 31.
Setting [3] is: S. haemolyticus SH8472, pair Erythromycin / MBI 31.
Where [4] appears, read: S. haemolyticus SH8564, pair Erythromycin / MBI 31.
[5] abbreviates: S. haemolyticus SH8575, pair Erythromycin / MBI 31.

In brackets after ≈: the same amount, converted by molar mass. Read-outs that look alike come from different tables or passages of the source. Peptide text beside a SMILES is read from it. Bounds are passed on as bounds.

As to “G K P R P Y S P I P T S P R P I R Y [MBI 31]”, the Peptide MIC in experiment [1] (S. aureus SA7796, pair Methicillin / MBI 31) turned out to be 16 µg/mL; in experiment [1] (S. aureus SA7797, pair Methicillin / MBI 31) it was 16 µg/mL; in experiment [1] (S. aureus SA7823, pair Methicillin / MBI 31), 0.5 µg/mL; in experiment [1] (S. aureus SA7834, pair Methicillin / MBI 31) it was 32 µg/mL; in experiment [1] (S. aureus SA7835, pair Methicillin / MBI 31), 16 µg/mL; in experiment [1] (setting [2]), 0.5 µg/mL. Also, the Peptide MIC in experiment [1] (setting [3]), in experiment [1] (setting [4]) and in experiment [1] (setting [5]) was 0.5 µg/mL in each case.

Take I L K K W P W W P W R R [MBI 11G7CN]: in the experiment on bacterial isolates (A. calcoaceticus 3), the “Peptide MIC + Piperacillin” value is 2 µg/mL, the “Peptide MIC Alone” value is 4 µg/mL and the “Piperacillin MIC + Peptide” value is 4 µg/mL.

I L K K F P F F P F R R K [MBI 11A1CN]: the MIC in the experiment with bacteria (A. calcoaceticus AC002) is 16 µg/mL; against bacteria (E. cloacae ECL007), greater than 128 µg/mL; in the experiment on bacteria (E. coli ECO002), 32 µg/mL; with bacteria (E. faecalis EFS002), 32 µg/mL; with bacteria (E. faecium EFM002), 1 µg/mL; against bacteria (H. influenzae HIN002), greater than 128 µg/mL. The MIC is greater than 128 µg/mL against bacteria (K. pneumoniae KP002); greater than 128 µg/mL with bacteria (P. aeruginosa PA004); greater than 128 µg/mL against bacteria (P. vulgaris SBPV1); 8 µg/mL with bacteria (S. aureus SA005); 16 µg/mL in the experiment with bacteria (S. epidermidis SE002); greater than 128 µg/mL in the experiment with bacteria (S. maltophilia SMA002). For the same molecule, the MIC against bacteria (S. marcescens SBSM2) and in the experiment with bacteria (S. pneumoniae SBSPN2) was greater than 128 µg/mL in each case. Also, the entries for the “Peptide MIC + Tobramycin” value in experiment [1] (P. aeruginosa PA026) and in experiment [1] (S. maltophilia SMA030) were 0.125 µg/mL and 64 µg/mL, respectively. Further, the “Ciprofloxacin MIC + Peptide” value in experiment [1] (S. aureus SA10) and in experiment [1] (S. aureus SA25) was 0.125 µg/mL throughout. Moreover, in experiment [1] (S. aureus SA10), the “Peptide MIC + Ciprofloxacin” value was found to be 64 µg/mL. Moreover, in experiment [1] (S. maltophilia SMA030), the “Tobramycin MIC + Peptide” value came to 2 µg/mL. Also, the FIC was 0.53 in experiment [1] (peptide + Ciprofloxacin, S. aureus SA25); 0.16 in experiment [1] (peptide + Tobramycin, S. maltophilia SMA029); 0.27 in experiment [1] (peptide + Tobramycin, S. maltophilia SMA030).

For `CC[C@H](C)[C@H](NC(=O)[C@H](CC(C)C)NC(=O)[C@H](C)NC(=O)[C@@H]1CCCN1C(=O)[C@H](CC(C)C)NC(=O)[C@H](C)NC(=O)[C@@H](NC(=O)[C@@H](NC(=O)[C@@H](NC(=O)[C@@H](NC(=O)[C@H](CCCCN)NC(=O)[C@H](CCCCN)NC(=O)[C@H](CC(C)C)NC(=O)[C@@H](NC(=O)[C@H](CCCCN)NC(=O)[C@@H](NC(=O)[C@H](CC(C)C)NC(=O)[C@H](CC(N)=O)NC(=O)[C@H](CCCCN)NC(=O)[C@@H](NC(=O)[C@H](Cc1ccccc1)NC(=O)[C@H](CO)NC(=O)[C@H](CCCCN)NC(=O)[C@H](Cc1c[nH]c2ccccc12)NC(=O)[C@@H](N)CCCCN)[C@@H](C)CC)[C@@H](C)O)C(C)C)C(C)C)C(C)C)[C@@H](C)O)[C@@H](C)O)C(=O)N[C@@H](CO)C(=O)O` [MBI 29A2, KWKSFIKNLTKVLKKVVTTALPALIS] (H-KWKSFIKNLTKVLKKVVTTALPALIS-OH; N-terminus and C-terminus assumed), the “Peptide MI Alone” value was 64 µg/mL in the experiment on bacterial isolates (P. aeruginosa PA24 (Ciprofloxacin section)), 4 µg/mL with bacterial isolates (S. aureus SA10 (Ciprofloxacin section)) and 2 µg/mL in the experiment on bacterial isolates (S. aureus SA93 (Ciprofloxacin section)).

As to I L R R W P W W P W R R K [MBI 11B1CN], the MIC in the experiment with bacteria (A. calcoaceticus AC001) is 32 µg/mL; against bacteria (E. cloacae ECL007) it was greater than 128 µg/mL; in the experiment with bacteria (E. coli ECO003) it was 8 µg/mL; against bacteria (E. faecalis EFS004), 8 µg/mL; against bacteria (E. faecium EFM002), 2 µg/mL; with bacteria (K. pneumoniae KP002), 64 µg/mL. Besides, the MIC against bacteria (P. aeruginosa PA005) was greater than 128 µg/mL; in the experiment with bacteria (S. aureus SA005), 2 µg/mL; against bacteria (S. epidermidis SE001) it was 2 µg/mL; against bacteria (S. maltophilia SMA001), 64 µg/mL; in the experiment with bacteria (S. marcescens SMS004), greater than 128 µg/mL. Further, the “Peptide MIC + Vancomycin” value in experiment [1] (E. faecalis EFS003) is 32 µg/mL; in experiment [1] (E. faecalis EFS006), 0.25 µg/mL; in experiment [1] (E. faecalis EFS010), 8 µg/mL; in experiment [1] (E. faecalis EFS014), 2 µg/mL; in experiment [1] (E. faecium EFM004) it was 16 µg/mL; in experiment [1] (E. faecium EFM007), 16 µg/mL. Further, the “Peptide MIC + Vancomycin” value in experiment [1] (E. faecium EFM009) stood at 8 µg/mL. The “Vancomycin MIC + Peptide” value amounted to 4 µg/mL in experiment [1] (E. faecalis EFS003); 4 µg/mL in experiment [1] (E. faecalis EFS006); 1 µg/mL in experiment [1] (E. faecalis EFS010); 1 µg/mL in experiment [1] (E. faecalis EFS014); 0.5 µg/mL in experiment [1] (E. faecium EFM004); 4 µg/mL in experiment [1] (E. faecium EFM007). Also, the “Vancomycin MIC + Peptide” value in experiment [1] (E. faecium EFM009) turned out to be 4 µg/mL. The “Peptide MIC Alone” value was greater than 128 µg/mL in experiment [1] (E. faecalis EFS003 (8. Vancomycin)); 128 µg/mL in experiment [1] (E. faecalis EFS006 (8. Vancomycin)); 128 µg/mL in experiment [1] (E. faecalis EFS010 (8. Vancomycin)); 4 µg/mL in experiment [1] (E. faecalis EFS014 (8. Vancomycin)); 32 µg/mL in experiment [1] (E. faecium EFM004 (8. Vancomycin)); 64 µg/mL in experiment [1] (E. faecium EFM007 (8. Vancomycin)). The “Peptide MIC Alone” value in experiment [1] (E. faecium EFM009 (8. Vancomycin)) is 64 µg/mL. Also, the FIC in experiment [1] (peptide + Vancomycin, E. faecalis EFS003) amounted to 0.63; in experiment [1] (peptide + Vancomycin, E. faecalis EFS006), 0.50; in experiment [1] (peptide + Vancomycin, E. faecalis EFS010) it was 0.13; in experiment [1] (peptide + Vancomycin, E. faecalis EFS014) it was 0.51; in experiment [1] (peptide + Vancomycin, E. faecium EFM004), 0.50; in experiment [1] (peptide + Vancomycin, E. faecium EFM007) it was 0.28. For the same molecule, the FIC in experiment [1] (peptide + Vancomycin, E. faecium EFM009) is 0.25.

As to `CC[C@H]1OC(=O)[C@H](C)[C@@H](O[C@H]2C[C@@](C)(OC)[C@@H](O)[C@H](C)O2)[C@H](C)[C@@H](O[C@@H]2O[C@H](C)C[C@H](N(C)C)[C@H]2O)[C@](C)(O)C[C@@H](C)C(=O)[C@H](C)[C@@H](O)[C@]1(C)O` [Erythromycin, reference compound], the MIC comb. came to 0.5 µg/mL (≈ 0.681 µM) in experiment [1] (S. aureus SA7609, pair Erythromycin / MBI 26); 1 µg/mL (≈ 1.36 µM) in experiment [1] (S. aureus SA7795, pair Erythromycin / MBI 26); 4 µg/mL (≈ 5.45 µM) in experiment [1] (S. aureus SA7795, pair Erythromycin / MBI 31); 1 µg/mL (≈ 1.36 µM) in experiment [1] (S. aureus SA7796, pair Erythromycin / MBI 26); 2 µg/mL (≈ 2.73 µM) in experiment [1] (S. aureus SA7796, pair Erythromycin / MBI 31); 2 µg/mL (≈ 2.73 µM) in experiment [1] (S. aureus SA7818, pair Erythromycin / MBI 31). Also, the MIC comb. stood at 0.5 µg/mL (≈ 0.681 µM) in experiment [1] (S. epidermidis SE8410, pair Erythromycin / MBI 26); 0.5 µg/mL (≈ 0.681 µM) in experiment [1] (S. epidermidis SE8410, pair Erythromycin / MBI 31); 0.5 µg/mL (≈ 0.681 µM) in experiment [1] (S. epidermidis SE8411, pair Erythromycin / MBI 26); 0.5 µg/mL (≈ 0.681 µM) in experiment [1] (S. epidermidis SE8411, pair Erythromycin / MBI 31); 0.5 µg/mL (≈ 0.681 µM) in experiment [1] (S. epidermidis SE8503, pair Erythromycin / MBI 26); 0.5 µg/mL (≈ 0.681 µM) in experiment [1] (S. epidermidis SE8503, pair Erythromycin / MBI 31). In addition, the MIC comb. stood at 0.5 µg/mL (≈ 0.681 µM) in experiment [1] (S. epidermidis SE8565, pair Erythromycin / MBI 26); 0.5 µg/mL (≈ 0.681 µM) in experiment [1] (S. epidermidis SE8565, pair Erythromycin / MBI 31); 0.5 µg/mL (≈ 0.681 µM) in experiment [1] (S. haemolyticus SH8463, pair Erythromycin / MBI 26); 0.5 µg/mL (≈ 0.681 µM) in experiment [1] (setting [2]); 0.5 µg/mL (≈ 0.681 µM) in experiment [1] (S. haemolyticus SH8472, pair Erythromycin / MBI 26); 0.5 µg/mL (≈ 0.681 µM) in experiment [1] (setting [3]). Besides, the MIC comb. in experiment [1] (setting [4]) turned out to be 2 µg/mL (≈ 2.73 µM); in experiment [1] (S. haemolyticus SH8575, pair Erythromycin / MBI 26), 2 µg/mL (≈ 2.73 µM); in experiment [1] (setting [5]) it was 2 µg/mL (≈ 2.73 µM); in experiment [1] (S. haemolyticus SH8578, pair Erythromycin / MBI 26), 0.5 µg/mL (≈ 0.681 µM); in experiment [1] (S. haemolyticus SH8578, pair Erythromycin / MBI 31) it was 0.5 µg/mL (≈ 0.681 µM); in experiment [1] (S. haemolyticus SH8597, pair Erythromycin / MBI 26) it was 0.5 µg/mL (≈ 0.681 µM).

Consider K R R W V W W V W R L I [MBI 11F4CNR], for which the MIC in the experiment on bacteria (A. calcoaceticus AC002) is 16 µg/mL; against bacteria (E. cloacae ECL007), 32 µg/mL; against bacteria (E. coli ECO005), 32 µg/mL; in the experiment on bacteria (E. faecalis EFS008), 32 µg/mL; against bacteria (K. pneumoniae KP001), 32 µg/mL; with bacteria (P. aeruginosa PA004) it was 64 µg/mL. Besides, the MIC against bacteria (S. aureus SA093) was 8 µg/mL; in the experiment on bacteria (S. epidermidis SE010), 3 µg/mL; against bacteria (S. maltophilia SMA002), 32 µg/mL; against bacteria (S. marcescens SMS003) it was greater than 128 µg/mL.
